According to the NIST ThermoML archive (doi:10.1021/je0504459):
Numbers after ± are expanded uncertainties.

Columns and labels:
[1] = 101 kPa, Liquid; for speed of sound: Sing-around technique in a fixed-path interferometer
[2] = xn = mol fraction of the nth substance listed; details: 101 kPa, Liquid, x2 = 0; for speed of sound: Sing-around technique in a fixed-path interferometer

ClC(Cl)Cl [trichloromethane]
kinematic viscosity ([1]; 303.15 K): 3.63e-07 ± 8e-09 m2/s | mass density ([1]; 303.15 K): 1469.21 ± 1.1 kg/m3 | speed of sound ([1]; 303.15 K): 969 ± 2 m/s | kinematic viscosity ([1]; 313.15 K): 3.39e-07 ± 8e-09 m2/s | mass density ([1]; 313.15 K): 1449.74 ± 1.1 kg/m3 | speed of sound ([1]; 313.15 K): 934 ± 2 m/s

CCCCCCO [hexan-1-ol]
kinematic viscosity ([1]; 303.15 K): 4.68e-06 ± 5.6e-08 m2/s | mass density ([1]; 303.15 K): 811.65 ± 0.57 kg/m3 | speed of sound ([1]; 303.15 K): 1289 ± 3 m/s | kinematic viscosity ([1]; 313.15 K): 3.63e-06 ± 4.4e-08 m2/s | mass density ([1]; 313.15 K): 804.24 ± 0.6 kg/m3 | speed of sound ([1]; 313.15 K): 1256 ± 3 m/s

CCCCCCCO [heptan-1-ol] + ClC(Cl)Cl
speed of sound ([2]; 303.15 K): 1312 ± 3 m/s | kinematic viscosity ([2]; 303.15 K): 6.19e-06 ± 7.1e-08 m2/s | mass density ([2]; 303.15 K): 814.94 ± 0.57 kg/m3 | speed of sound ([2]; 313.15 K): 1278 ± 3 m/s | kinematic viscosity ([2]; 313.15 K): 4.59e-06 ± 5.5e-08 m2/s | mass density ([2]; 313.15 K): 807.77 ± 0.6 kg/m3

CCCCCCCO [heptan-1-ol]
kinematic viscosity ([1]; 303.15 K): 6.19e-06 ± 7.1e-08 m2/s | mass density ([1]; 303.15 K): 814.94 ± 0.57 kg/m3 | speed of sound ([1]; 303.15 K): 1312 ± 3 m/s | kinematic viscosity ([1]; 313.15 K): 4.59e-06 ± 5.5e-08 m2/s | mass density ([1]; 313.15 K): 807.77 ± 0.6 kg/m3 | speed of sound ([1]; 313.15 K): 1278 ± 3 m/s

CCCCCO [pentan-1-ol]
kinematic viscosity ([1]; 303.15 K): 3.73e-06 ± 4.2e-08 m2/s | mass density ([1]; 303.15 K): 808.6 ± 0.44 kg/m3 | speed of sound ([1]; 303.15 K): 1264 ± 3 m/s | kinematic viscosity ([1]; 313.15 K): 2.89e-06 ± 3.3e-08 m2/s | mass density ([1]; 313.15 K): 800.99 ± 0.48 kg/m3 | speed of sound ([1]; 313.15 K): 1228 ± 3 m/s

CCCCCO [pentan-1-ol] + ClC(Cl)Cl
speed of sound ([2]; 303.15 K): 1264 ± 3 m/s | kinematic viscosity ([2]; 303.15 K): 3.73e-06 ± 4.2e-08 m2/s | mass density ([2]; 303.15 K): 808.6 ± 0.44 kg/m3 | speed of sound ([2]; 313.15 K): 1228 ± 3 m/s | kinematic viscosity ([2]; 313.15 K): 2.89e-06 ± 3.3e-08 m2/s | mass density ([2]; 313.15 K): 800.99 ± 0.48 kg/m3

CCCCCCO [hexan-1-ol] + ClC(Cl)Cl
speed of sound ([2]; 303.15 K): 1289 ± 3 m/s | kinematic viscosity ([2]; 303.15 K): 4.68e-06 ± 5.6e-08 m2/s | mass density ([2]; 303.15 K): 811.65 ± 0.57 kg/m3 | speed of sound ([2]; 313.15 K): 1256 ± 3 m/s | kinematic viscosity ([2]; 313.15 K): 3.63e-06 ± 4.4e-08 m2/s | mass density ([2]; 313.15 K): 804.24 ± 0.6 kg/m3
